# Tests used:
# CYPIIB1 [1] = experiment: Diazepam clearance by in vivo induced hepatocytes; parameters: species or system porcine
# Protocol: Cells were isolated using a modification of the Seglen method which has been described earlier (Seglen, P., Preparation of isolated rat liver cells, In Meth. in Cell. Bio. (D M Prescott, ed.), vol. 13. Academic Press (NY, N.Y.), 1976.). Briefly, the exposed liver was cannulated and perfused in situ with cold Lactated Ringers (Baxter, Deerfield, Ill.) at 250 ml/minute before excision and transport to the lab. The liver was quickly warmed and perfused with 0.2% EDTA at 37° C. This was followed by perfusion of 1 mg/ml collagenase (Life Technologies, Grand Island, N.Y.) at 37° C. until digestion appeared complete (mean digestion 22±4 min). Further digestion was stopped with the addition of cold HBSS (BioWhittaker, Walkersville, Md.) supplemented with 10% NBCS (Hyclone, Logan, Utah). Undigested tissue and gall bladder were excised and the remainder of the tissue passed through 200 and 100 micron stainless steel sieves (Fisher Scientific, Pittsburgh, Pa.). The cell suspension was washed twice and the cell pellet resuspended in culture media. Viability was determined by Trypan blue exclusion and Calcein AM staining (Molecular Probes, Eugene, Oreg.). Hepatocytes derived from the isolation process following in vivo induction show lower viability when compared to control conditions (77% n=7 versus 89% n=40), yet the cells detoxify xenobiotics at a greater rate. Immediately after isolation, 10^6 cells were assayed for total protein with the BCA kit (Pierce Biochemical, Rockford, Ill.). […]
# Diazepam clearance was assayed in the cultures of Example 1 using a method similar to that of Jauregui et al. Xenobiotic induction of P-450 PB-4 (IIB1) and P-450c (IA1) and associated monooxygenase activities in primary cultures of adult rat hepatocytes. […] This reverse phase HPLC run was conducted at a flow rate of 1.0 ml/min through a micro-Bondpak C18 column (Waters) with absorbance set at 254 nm. […]
# CYPIA1 [2] = experiment: EROD conversion to resorufin by in vivo induced hepatocytes; parameters: species or system porcine; conditions: for Degree of isozyme activity increase over noninduced control: EROD substrate, hepatocytes induced in vivo, 10 to 15 mg/kg
# Protocol: (§1) Cells were isolated using a modification of the Seglen method which has been described earlier (Seglen, P., Preparation of isolated rat liver cells, In Meth. in Cell. Bio. (D M Prescott, ed.), vol. 13. Academic Press (NY, N.Y.), 1976.). Briefly, the exposed liver was cannulated and perfused in situ with cold Lactated Ringers (Baxter, Deerfield, Ill.) at 250 ml/minute before excision and transport to the lab. The liver was quickly warmed and perfused with 0.2% EDTA at 37° C. This was followed by perfusion of 1 mg/ml collagenase (Life Technologies, Grand Island, N.Y.) at 37° C. until digestion appeared complete (mean digestion 22±4 min). Further digestion was stopped with the addition of cold HBSS (BioWhittaker, Walkersville, Md.) supplemented with 10% NBCS (Hyclone, Logan, Utah). Undigested tissue and gall bladder were excised and the remainder of the tissue passed through 200 and 100 micron stainless steel sieves (Fisher Scientific, Pittsburgh, Pa.). The cell suspension was washed twice and the cell pellet resuspended in culture media. Viability was determined by Trypan blue exclusion and Calcein AM staining (Molecular Probes, Eugene, Oreg.). Hepatocytes derived from the isolation process following in vivo induction show lower viability when compared to control conditions (77% n=7 versus 89% n=40), yet the cells detoxify xenobiotics at a greater rate. Immediately after isolation, 10^6 cells were assayed for total protein with the BCA kit (Pierce Biochemical, Rockford, Ill.).
# Cells were plated onto 60 mm tissue culture dishes at a density of 2×10^6 cells per dish (Corning, Corning, N.Y.) in Williams' E media supplemented with 1% NBCS (newborn calf serum), 4.5 g/L glucose, 0.5 U/ml bovine insulin, 7 ng/ml glucagon, 7.5 μg/ml hydrocortisone, 10 mM HEPES (Sigma), 20 ng/ml EGF, […] (Life Technologies), 10 IU/ml penicillin and 10 μg/ml streptomycin (BioWhittaker). Hepatocytes were incubated at 37° C. in humidified 10% CO2. Culture medium was changed on day 1 post-isolation and then every 2-3 days. […]
# CYPIA1 [3] = experiment: EROD conversion to resorufin by in vitro induced hepatocytes; format: cell-based, porcine
# Protocol: (§2) For comparison, in vitro induced hepatocyte cultures were prepared. Hepatocytes were procured using the method described above but from non-induced pigs and then induced in culture. Cells were plated onto 60 mm tissue culture dishes (Corning, Corning, N.Y.) in Williams' E media supplemented with 1% NBCS (newborn calf serum), 4.5 g/L glucose, 0.5 U/ml bovine insulin, 7 ng/ml glucagon, 7.5 μg/ml hydrocortisone, 10 mM HEPES (Sigma), 20 ng/ml EGF, […] (Life Technologies), 10 IU/ml penicillin and 10 μ/ml streptomycin (BioWhittaker). Experimental conditions were treated with culture medium containing any one of the following: 2 mM phenobarbital (PB; Sigma) for 96 hours, 50 μM β-naphthoflavone (BNF; Sigma) for 24 hours, or 5 μM 3-methlycholanthrene (3-MC; Sigma) for 24 hours.
# (§3) To measure increased isozyme activity in both in vivo and in vitro induced cultures compared to non-induced controls, both in vivo induced and in vitro induced cultures from Example 1 were incubated with EROD, MROD, PROD or BROD (Molecular Probes) at 5 μM (in Williams' E media without serum and phenol red). Dicumarol (80 μM, Sigma) was included in the incubation to limit cytosolic degradation of the resorufin end product. Samples were analyzed in a Turner 450 fluorometer at 540ex and 585em nm. Resorufin formation was quantified using a standard curve that was linear from 0.5 to 130 nM and data are expressed as net resorufin gain over background fluorescence. In this assay, conversion of the alkoxyresorufins to resorufin corresponds to an increase in fluorescence such that the ratio of fluorescences, or activity, corresponds directly to the level of P450 activity of a particular set of isoenzymes.
# CYPIIB1 [4] = experiment: PROD conversion to resorufin by in vivo induced hepatocytes; parameters: species or system porcine; conditions: for Degree of isozyme activity increase over noninduced control: PROD substrate, hepatocytes induced in vivo
# Protocol: as §1
# (§4) Cells were plated onto 60 mm tissue culture dishes at a density of 2×10^6 cells per dish (Corning, Corning, N.Y.) in Williams' E media supplemented with 1% NBCS (newborn calf serum), 4.5 g/L glucose, 0.5 U/ml bovine insulin, 7 ng/ml glucagon, 7.5 μg/ml hydrocortisone, 10 mM HEPES (Sigma), 20 ng/ml EGF, […] (Life Technologies), 10 IU/ml penicillin and 10 μg/ml streptomycin (BioWhittaker). Hepatocytes were incubated at 37° C. in humidified 10% CO2. Culture medium was changed on day 1 post-isolation and then every 2-3 days. Media samples taken at each change were stored for assay of albumin and urea.
# CYPIA2 [5] = experiment: MROD conversion to resorufin by in vitro induced hepatocytes; format: cell-based, porcine; conditions: in vitro induction 5 μM for 24 hours; two million hepatocytes, day 2 of culture
# Protocol: as §2, with “Experimental conditions were treated with culture medium containing any one of the following: 2 mM phenobarbital (PB; Sigma) for 96 hours, 50 μM β-naphthoflavone (BNF; Sigma) for 24 hours, or 5 μM 3-methlycholanthrene (3-MC; Sigma) for 24 hours.” left out
# as §3, with “Dicumarol (80 μM, Sigma) was included in the incubation to limit cytosolic degradation of the resorufin end product.” left out
# CYPIA2 [6] = experiment: MROD conversion to resorufin by in vivo induced hepatocytes; parameters: species or system porcine; conditions: for Degree of isozyme activity increase over noninduced control: MROD substrate, hepatocytes induced in vivo, 10 to 15 mg/kg
# Protocol: as §3
# CYPIIB1 [7] = experiment: PROD conversion to resorufin by in vitro induced hepatocytes; format: cell-based, porcine
# Protocol: as §2, with “Experimental conditions were treated with culture medium containing any one of the following: 2 mM phenobarbital (PB; Sigma) for 96 hours, 50 μM β-naphthoflavone (BNF; Sigma) for 24 hours, or 5 μM 3-methlycholanthrene (3-MC; Sigma) for 24 hours.” left out
# as §3, with “Dicumarol (80 μM, Sigma) was included in the incubation to limit cytosolic degradation of the resorufin end product.” left out
# [8] = system: CYPIIB2 and CYPIIB1 isozymes; experiment: Maintenance of isozyme function four days after plating of in vivo induced hepatocytes; conditions: in vivo induced with 40 to 80 mg/kg once each day, 4 doses
# Protocol: as §3
# CYPIA2 [9] = experiment: 7-Ethoxycoumarin metabolism by in vivo induced hepatocytes; parameters: species or system porcine
# CYPIIB2 [10] = experiment: BROD conversion to resorufin by in vivo induced hepatocytes; parameters: species or system porcine
# Protocol: as §1, §4
# CYPIIB2 [11] = experiment: BROD conversion to resorufin by in vitro induced hepatocytes; format: cell-based, porcine
# Protocol: as §2, with “Experimental conditions were treated with culture medium containing any one of the following: 2 mM phenobarbital (PB; Sigma) for 96 hours, 50 μM β-naphthoflavone (BNF; Sigma) for 24 hours, or 5 μM 3-methlycholanthrene (3-MC; Sigma) for 24 hours.” left out
# as §3, with “Dicumarol (80 μM, Sigma) was included in the incubation to limit cytosolic degradation of the resorufin end product.” left out
# CYPIA2 [12] = experiment: Lidocaine clearance by in vivo induced hepatocytes; parameters: species or system porcine; conditions: Lidocaine substrate (clearance), 40 to 80 mg/kg
# Protocol: A series of in vivo induction studies utilized various doses and injection regimes ranging from 40 to 80 mg/kg on days −4 to −1 with phenobarbital in PBS; 3-methlycholanthrene (in DMSO or benzene);or, β-naphthoflavone (in DMSO) given at 5 to 15 mg/kg on days −3, −2 and/or −1 prior to surgical removal of the liver. Yorkshire/Hampshire crossbred pigs weighing 8.3±3.0 kg were obtained from E M Parsons (Hadley, Mass.). All injections of induction agents were administered into the peritoneal cavity.
# Cells were isolated using a modification of the Seglen method which has been described earlier (Seglen, P., Preparation of isolated rat liver cells, In Meth. in Cell. Bio. (D M Prescott, ed.), vol. 13. Academic Press (NY, N.Y.), 1976.). […] Viability was determined by Trypan blue exclusion and Calcein AM staining (Molecular Probes, Eugene, Oreg.). […]
# Lidocaine (Paddock Laboratories Inc., Minneapolis, Minn.) clearance was assayed using a modification of the protocol of Nyberg et al. Pharmacokinetic analysis verifies P450function in in vitro and in vivo application of a bioartificial liver, ASAIO, 39:M252-M256, 1993. […] The reverse phase HPLC was carried out with a flow rate of 1 ml/minute on a Microsorb C8 column (Rainin Instrument Co., Woburn, Mass.) at room temperature and monitored at 214 nm. […]
# [13] = three daily injections in vivo, day one of culture, 2x10^6 cells on 60 mm dish
smiles,measurement,setting,value
"Cc1ccc2cc3c(ccc4ccccc43)c3c2c1CC3 [3-Methylcholanthrene, 3-methylcholanthrene]",Degree of isozyme activity increase over noninduced control,"CYPIIB1 [1]; Diazepam substrate (clearance), 10 to 15 mg/kg",2 to 10-fold
same,Degree of isozyme activity increase over noninduced control,"CYPIIB1 [1]; Diazepam substrate (clearance), 10 to 15 mg/kg, listed as 3-methlycholanthrene",2 to 10 fold
same,Degree of isozyme activity increase over noninduced control,CYPIA1 [2],10 to 20-fold
same,increase over noninduced controls,"CYPIA1 [2]; in vivo induction, EROD",24 fold
same,conversion rate relative to control rate,"CYPIA1 [3]; in vitro induction 5 μM for 24 hours, two million hepatocytes, day 2 of culture",18 fold
same,Degree of isozyme activity increase over noninduced control,CYPIIB1 [4]; 10 to 15 mg/kg,2 to 10-fold
same,upregulation of CYPIIB1 (PROD),CYPIIB1 [4]; in vivo administration,8.4 fold
same,conversion rate relative to control rate,CYPIA2 [5],4 fold
same,Degree of isozyme activity increase over noninduced control,CYPIA2 [6],2 to 10-fold
same,increase over noninduced controls,"CYPIA2 [6]; in vivo induction, MROD",7.6 fold
same,effect on CYPIIB1 (upregulation),CYPIIB1 [7]; in vitro induction,not observed
"O=c1cc(-c2ccccc2)oc2ccc3ccccc3c12 [Beta-Naphthoflavone, beta-naphthoflavone]",Degree of isozyme activity increase over noninduced control,CYPIA1 [2],2 to 10-fold
same,increase in function over control metabolic conversion of EROD,"CYPIA1 [3]; in vitro induction 24 hours, 50 μM",14.8 fold
same,resorufin formed per minute,"CYPIA1 [3]; in vitro induction 24 hours, 50 μM, EROD, control 0.27 nM",4.0 nM
same,Degree of isozyme activity increase over noninduced control,CYPIA2 [6],2 to 10-fold
"CCC1(c2ccccc2)C(=O)NC(=O)NC1=O [Phenobarbital, phenobarbital]",Degree of isozyme activity increase over noninduced control,"CYPIIB1 [1]; Diazepam substrate, 40 to 80 mg/kg",20 to 50-fold
same,reduction of cytochrome P450 activity four days after plating,[8],about 50%
same,Degree of isozyme activity increase over noninduced control,"CYPIA2 [9]; 7-EC substrate, hepatocytes induced in vivo, 40 to 80 mg/kg",20 to 50-fold
same,umbelliferone production rate,"CYPIA2 [9]; in vivo induced, 24 hours after adding 7-ethoxycoumarin, noninduced 2.58±1.9",346±41.4 nM per hour
same,Degree of isozyme activity increase over noninduced control,CYPIIB1 [4]; 40 to 80 mg/kg,2 to 40-fold
same,upregulation following in vivo induction,CYPIIB1 [4]; [13],38 fold
same,Degree of isozyme activity increase over noninduced control,"CYPIIB2 [10]; BROD substrate, hepatocytes induced in vivo, 40 to 80 mg/kg",20 to 100-fold
same,rate of resorufin formation from the BROD substrate,"CYPIIB2 [10]; in vivo induction, day 1",approximately 10.4 nM resorufin per minute
same,increase in function following in vivo induction,CYPIIB2 [10]; [13],70 fold
same,rate relative to average control rate of resorufin formed on day 1 from BROD,CYPIIB2 [10]; versus control 0.15 nM per minute,69 times
same,increase in function over noninduced controls,"CYPIIB2 [11]; in vitro induction 96 hours (2 mM), BROD, 3 hours incubation, day 4 of culture",8.4 fold
same,rate of resorufin formation from the BROD substrate,"CYPIIB2 [11]; in vitro induction, day 4",about 0.33 nM resorufin formed per minute
same,higher rate of PROD metabolism following treatment,"CYPIIB1 [7]; in vitro induction 96 hours (2 mM), PROD, 3 hours incubation",3 fold
same,Degree of isozyme activity increase over noninduced control,CYPIA2 [12],10 to 20-fold
same,Degree of isozyme activity increase over noninduced control,CYPIA2 [12]; listed as phenobarbital,10 to 20 fold
